Series [1] in a line: Solubility over a range of pH. To be noted: over a wide range of pH; comparator not stated.
Series [2] in a line: Solid-state stability upon storage and processing. The following applies: storage and processing (e.g. grinding, pressure, heat, humidity).

Each structure is given as a SMILES string.

As for `c1ccc2cc([C@]34CNC[C@H]3C4)ccc2c1` [(1R,5S)-1-naphthalen-2-yl-3-azabicyclo[3.1.0]hexane], the solubility entry in series [1] is given as “improved solubility”. Moreover, the “stability of the crystalline form upon storage and processing” value in series [2] is “stable crystalline Form upon storage and processing”.

Values taken from patent publication US12698260B2, “Solid state form of centanafadine HCL and process for preparation thereof” (ASSIA CHEMICAL INDUSTRIES LTD., priority 2021, dated 2026).
